In patent US5270310A, “N-aminoalkyl amide inhibitors of protein kinase C” (Sphinx Pharmaceuticals Corporation, priority 1991, dated 1993):
Read-outs that look alike come from different tables or passages of the source.

Legend:
protein kinase C (PKC) = experiment: Protein Kinase C Inhibition; type: biochemical, rat
Protocol: The protein kinase C (PKC) assay is designed to duplicate the in vivo conditions required for protein kinase C function. Therefore, pH, salt and cofactor concentrations are similar to physiologic levels. Histone H1 (lysine rich) is used in the assay as the phosphorylation acceptor protein because it is readily available and serves as a good substrate for protein kinase C. The enzyme is prepared from rat brain and is purified to apparent homogeneity as determined by a single band on silver stained SDS-polyacrylamide. Studies on the mechanism of regulation of protein kinase C by phospholipids, DAG and Ca^+2 have been hampered by the physical properties of the lipid cofactors. In the screening assay, phosphatidylserine (PS) and DAG are co-sonicated to form unilamellar and multilamellar vesicles. The concentration of lipids in the assay are suboptimal to maximize the detection potential of the assay for inhibitors. […] The assay is started with the addition of enzyme and stopped after 10 min by the addition of 25% trichloroacetic acid (TCA) and 1.0 mg/ml bovine serum albumin (BSA). The radioactive histone product is retained and washed on glass fiber filters that allow the unreacted ^32 P-ATP to pass through. The amount of phosphorylation is determined by the radioactivity measured in a scintillation counter. Controls are included in every assay to measure background activity in the absence of enzyme, activity in the absence of lipids and the maximum enzyme activity with saturating levels of the activator lipids.
Both the free base and the HCl salt were tested.

[1] = molecular target: T1, protein kinase (PKA), catalytic subunit (Homo sapiens, UniProt P17612); experiment: cAMP-Dependent Protein Kinase (PKA) Assay; type: biochemical; conditions: free base
T1 construct: purchased Sigma Chemical Company, St. Louis, Mo
Protocol: Compound found to be inhibitors of protein kinase C are tested for inhibitory activity against protein kinase (PKA). This enzyme, like protein kinase C, plays an important role in cell-cell communication and is activated by a second messenger, cAMP. Secondary screening against PKA is useful for ascertaining the selectivity of the compounds of the invention. The catalytic subunit of PKA (Sigma Chemical Company, St. Louis, Mo.) is mixed with buffer before addition of the inhibitor in dimethylsulfoxide (DMSO). The assay is started by the addition of 32P-ATP and the reaction is allowed to proceed for 10 min before stopping with 25% trichloroacetic acid (TCA) and 1.0 mg/ml bovine serum albumin (BSA). The phosphorylated protein is isolated by filtration and the radioactivity is counted in a beta scintillation counter.

[2] = system: MCF-7 human breast tumor cell line; experiment: Human Tumor Cell Growth Inhibition, MCF-7; type: cell-based; conditions: for IC50: Homo sapiens, MCF7, 3H-thymidine incorporation, value outside parentheses (not salt); for inhibit growth of MCF-7 cells: result in words
Protocol: MCF-7 a human breast tumor cell line and MCF-7/ADR an adriamycin resistant line of MCF-7 cells were obtained from the National Cancer Institute, Frederick, Md. […] Human tumor cells are trypsinized (0.05% trypsin, GIBCO), counted with a hemacytometer and seeded at a concentration of 10,000 cells/well in a 96 well microtiter plate. After allowing cells to attach to the surface overnight, the culture medium is aspirated and replaced with 100 μl of fresh medium. Test agents are diluted to determine dose response at 2× final concentration and added in quadruplicate at 100 μl/well to bring the total volume of each well to 200 μl. The microtiter plate is then incubated at 37° C. 5% CO2 overnight (18-24 hrs) before ^3 H-thymidine is added at a concentration of 0.5 μCi/well in 50 μl culture medium. The plate is incubated again for 4 hrs under the same conditions as above. Supernatant is then aspirated and 50 μl trypsin (0.05%, GIBCO) is added to each well. Cells are checked microscopically to determine detachment from surfaces, and plates are then harvested with a cell harvester (PHD, Cambridge Technology, Inc.) Filter papers corresponding to wells are placed in scintillation vials and counted to determine the amount of ^3 H-thymidine incorporated by the cells. Test agent response is compared to a positive control of cell wells with culture media only to determine the IC50. IC50 is the concentration of test compound required to inhibit fifty per cent of the incorporation of ^3 H-thymidine into proliferating cells not exposed to test agent. Uptake of ^3 H-thymidine is a standard test for measuring the metabolism of cells. Cells which are actively proliferating take up ^3 H-thymidine, whereas cells that are not proliferating take up ^3 H-thymidine at much slower rates or not at all. Test agents that inhibit the uptake of ^3 H-thymidine thus slow the growth of cells.

[3] = system: NHEK cells (proliferating keratinocytes); experiment: Human Keratinocyte Inhibition; type: cell-based; conditions: 3H-thymidine incorporation
Protocol: Proliferating keratinocytes (NHEK cells purchased from Clonetics, Inc., San Diego, Calif.) in second passage were grown in Keratinocyte Growth Medium (KGM) (Clonetics, Inc.) Cells are trypsinized (0.025% trypsin, Clonetics), counted with a hemacytometer (Scientific Products), and seeded at a concentration of 2,500 cells/well in a 96 well microtiter plate. After allowing cells to attach to the surface overnight, the culture medium is aspirated and replaced with 100 μl of fresh KGM. […] IC50 is the concentration of test compound required to inhibit fifty percent of the incorporation of ^3 H-thymidine into proliferating cells not exposed to test agent.

[4] = system: PMA-stimulated neutrophils; experiment: Neutrophil Superoxide Anion (O2^-) Release Assay; type: cell-based, human; conditions: for IC50: Homo sapiens, Neutrophil, PMA-stimulated; for inhibit O2^- production by PMA-stimulated neutrophils: result in words
Protocol: Neutrophils are isolated form whole blood collected from human volunteers. All reagent materials are obtained from Sigma Chemical Company with the exception of isotonic saline (Travenol Laboratories, Inc., Deerfield, Ill.) and lymphocyte separation medium (Organon Teknika, Durham, N.C.).
Whole blood is drawn and mixed with sodium heparin (final conc. 10 units/ml) to prevent clotting. An equal volume of dextran (3.0%) in isotonic saline is added, mixed, and allowed to settle for 30 min to bind red blood cells (RBC). Supernatant is removed, underlayered with lymphocyte separation medium and centrifuged for 40 min at 400 xg in a centrifuge (Beckman GPR, Norcross, Ga). The pellet is alternately resuspended in 0.2% and 1.6% NaCl to lyse RBCs before washing with Hank's Balanced Salt Solution (HBSS). The washed pellet is resuspended in 10 mL HBSS and placed on ice before counting on a hemacytometer.
The neutrophil cell concentration is adjusted to 2×10^6 cells/ml with HBSS before adding 0.8 mL cells to 12×75 mm polypropylene test tubes (Fisher Scientific). Test agents are diluted to determine dose response and added at 10× final concentration at a volume of 0.1 mL/tube in duplicate. Then 10× concentrations of cytochrome C (15 mg/ml) with catalase (3000 units/ml) either alone or containing 25 ng/ml phorbol 12-myristate 13-acetate (PMA) are added at a volume of 0.1 mL/tube and incubated at 37° C. for 30 min before stopping the reaction by placing tubes on ice. Tubes are then centrifuged at 900 xg for 10 min, 0.5 mL supernatant is removed and added to 0.5 mL H2 O in a microcuvette. Optical density (OD) of cytochrome c is read in a spectrophotometer (Shimadzu) at 550 nm. The ΔOD of cytochrome c is obtained between PMA-stimulated and non-stimulated tubes, and the dose responses of the test agents are compared to the positive controls (which contain HBSS in place of test agents). PMA stimulates O2^- production which reduces cytochrome c. Reducing cytochrome c increases its absorbance, and the change in OD of cytochrome c is proportional to the amount of O2^- produced by PMA stimulation. Inhibition of the O2^- burst by test compounds of the invention is seen as a reduction in the change in optical density. Inhibition is expressed as IC50 μM and is the amount of test compound that will inhibit fifty percent of the PMA-stimulated respiratory outburst, i.e. O2^- production.

[5] = system: MCF-7 human breast tumor cell line; experiment: Human Tumor Cell Growth Inhibition, MCF-7; type: cell-based; conditions: MCF7, 3H-thymidine incorporation, value in parentheses: salt
[6] = value in parentheses: salt, read-out: NHEK IC50 (salt)
[7] = value outside parentheses (not salt), read-out: NHEK IC50
[8] = value in parentheses: salt, read-out: Neutrophil Superoxide Release IC50 (salt)
[9] = value outside parentheses (not salt), read-out: Neutrophil Superoxide Release IC50

Structure (SMILES)	IC50 (protein kinase C (PKC); HCl salt)	IC50 (protein kinase C (PKC); free base)	IC50 [1]	IC50 [2]	IC50 [4, 8]	IC50 [4, 9]	IC50 [5]	inhibit growth of MCF-7 cells [2]	IC50 [3, 6]	IC50 [3, 7]	inhibit O2^- production by PMA-stimulated neutrophils ([4]; HCl salt)	inhibit O2^- production by PMA-stimulated neutrophils ([4]; compound itself)
CCCCCCCCCCCCCCCC(=O)N(C)CCN(C)C [Compound 3]	66 µM	40 µM										
CCCCCCCCCCCCCCCC(=O)NCCCN(C)C [Compound 6, N,N-Dimethyl-N'hexadecanoyl-1,3-propanediamine]	50 µM	50 µM	140 µM	4.5 µM	2.8 µM	2.32 µM	3.5 µM	effectively inhibit growth of MCF-7 cells at micromolar concentrations	0.78 µM		inhibit O2^- production by PMA-stimulated neutrophils at micromolar concentrations	inhibit O2^- production by PMA-stimulated neutrophils at micromolar concentrations
CCCCCCCCCCCCCCCC(=O)N(CCCN(C)C)C(C)C [Compound 9, N,N-Dimethyl-N'-(2-propyl)-N'-hexadecanoyl-1,3-propanediamine]	130 µM	146 µM	172 µM	5.1 µM		0.9 µM				0.14 µM		
CCCCCCCCCCCCCCCC(=O)NCCCN(CC)CC [Compound 10, N,N-Diethyl-N'-hexadecanoyl-1,3-propanediamine]		131 µM	> 218 µM							1.56 µM		
CCCCCCCCCCCCCCCC(=O)NCCC[N+](C)(C)C [Compound 15, N-Hexadecanoyl-3-trimethylammoniumpropylamine iodide]		24 µM		5 µM						3.3 µM		
CCCCCCCCCCCCCCCCN(CCCN(C)C)C(C)=O [Compound 20, N-Acetyl-N-hexadecyl-N',N'-dimethyl-1,3-propanediamine]	44 µM	69 µM	67 µM			1.1 µM				1.3 µM		
CCCCCCCCCCCCCCCC(=O)N(CCC[N+]1(C)CCOCC1)Cc1ccccc1 [Compound 22]		45 µM	< 44 µM	15.4 µM						1.6 µM		

Further lines, with some results ahead:

IC50 (protein kinase C (PKC); HCl salt)	IC50 (protein kinase C (PKC); free base)	IC50 [1]	IC50 [2]	IC50 [4, 8]	IC50 [4, 9]	IC50 [5]	Structure (SMILES)	inhibit growth of MCF-7 cells [2]	IC50 [3, 6]	IC50 [3, 7]	inhibit O2^- production by PMA-stimulated neutrophils ([4]; HCl salt)	inhibit O2^- production by PMA-stimulated neutrophils ([4]; compound itself)
57 µM	107 µM	90 µM	1.5 µM	2.39 µM	45 µM	2.9 µM	CCCCCCCCCCCCCCCC(=O)N(C)CCCN(C)C [Compound 4, N-Hexadecanoyl-N,N',N'-trimethyl-1,3-propanediamine]	effectively inhibit growth of MCF-7 cells at micromolar concentrations	2.4 µM	0.8 µM	inhibit O2^- production by PMA-stimulated neutrophils at micromolar concentrations	inhibit O2^- production by PMA-stimulated neutrophils at micromolar concentrations
38 µM	50 µM	119 µM					CCCCCCCCCCCCCCCC(=O)N(CC)CCCN(C)C [Compound 7, N,N-Dimethyl-N'-ethyl-N'-hexadecanoyl-1,3-propanediamine]					
48 µM	131 µM	> 218 µM	9.7 µM		2.9 µM		CCCCCCCCCCCCCCCC(=O)N(CCC)CCCN(C)C [Compound 8, N,N-Dimethyl-N'-hexadecanoyl-N'-propyl-1,3-propanediamine]			1.03 µM		
100 µM	92 µM	> 218 µM					CCCCCCCCCCCCCCCC(=O)N(C)CCN(C)C [Compound 25, N,N,N'-Trimethyl-N'-hexadecanoyl-1,3-ethanediamine]					
